In series [1] the test system is male mice of C57BL/6 line. The experiment in a line: Test of familiar object recognition in a novel localization (spatial memory). The format is in vivo. The following applies: for % of time investigating the object in a novel localization / % of time investigating the object in familiar localization: testing 48 hr after training; for effect on memory: doses of 1 mg/kg and 5 mg/kg. The text has this: Testing of compounds of general formula 1 on spatial memory in test of novel object recognition. Test of novel object recognition is based on the fact that rats and mice investigate spontaneously a novel object or novel object localization (NL) for longer period of time than the known object or known object localization (KL). The test was tried on rats [A. Ennaceur and J. Delacour, A new one-trial test for neurobiological studies of memory in rats. 1: behavioral data. Behay. Brain Res. 1988, 31, 47-59; J. C. Dodart, C. Mathis and A. Ungerer, Scopolamine-induced deficits in a two-trial object recognition task in mice. NeuroReport 1997, 8, 1173-1178; C. Messier, Object recognition in mice: improvement of memory by glucose. Neurobiol. Learn. Mem. 1997, 67, 172-175; C. Pittenger, Y. Y. Huang, R. F. Paletzki, R. Bourtchouladze, H. Scanlin, S. Vronskaya et al., Reversible inhibition of CREB/ATF transcription factors in region CA1 of the dorsal hippocampus disrupts hippocampus-dependent spatial memory. Neuron 2002, 34, 447-462; A. E. Ryabinin, M. N. Miller and S. Durrant, Effects of acute alcohol administration on object recognition learning in C57BL/6J mice. Pharmacol. Biochem. Behay. 2002, 71, 307-312; F. Sargolini, P. Roullet, A. Oliverio and A. Mele, Effects of intra-accumbens focal administrations of glutamate antagonists on object recognition memory in mice. Behay. Brain Res. 2003, 138, 153-163].
Test of novel object recognition consists of two tests. The first one is novel object localization test use for examination of spatial memory, and the second one—test of novel object recognition for exploring non spatial memory [D. Gaffan, Amnesia for complex naturalistic scenes and for objects following formix transaction in the Rhesus monkey. Eur. J. Neurosci. 1992, 4, 381-388; B. Kolb, K. Buhrmann, R. McDonald and R. Sutherland, Dissociation of the medial prefrontal, posterior parietal, and posterior temporal cortex, for spatial navigation and recognition memory in the rat. Cereb. Cortex 1994, 6, 664-680; T. Steckler, W. H. I. M. Drinkenburgh, A. Sahgal and J. P. Aggleton, Recognition memory in rats. I. Concepts and classification. Prog. Neurobiol. 1998, 54, 289-311. T. Steckler, W. H. I. M. Drinkenburgh, A. Sahgal and J. P. Aggleton, Recognition memory in rats II. Neuroanatomical substrates. Prog. Neurobiol. 1998, 54, 313-332].
Methods of Investigation.
Subjects were male mice of 3-5 month age of C57BL/6 line, weighing 20-24 g. Animals were housed 5 per cage at light mode 12×12 hr with a light part from 8 till 20 o'clock with water and food available. Experimental setup was made of non-transparent white organic glass measuring 48×38×30 cm. As objects of recognition brown glass bottles measuring 2.7 cm diameter and 5.5 cm high were used. The cage and objects of recognition were wiped with 85% alcohol 2-3 min prior placing an animal in the cage. Animals were always placed in the cage centre. 40 Mg of compound of general formula 1 were dissolved in 0.2 ml of DMSO with the following addition of distilled water up to desired concentration. Solutions were prepared just before a trial. All experiments were carried out on two groups of 10 mice each. Animals were injected in dose 1 and 5 mg/kg in volume 0.05 ml on 10 g of animal weight one hour before the trial. The control animals were injected with an equal volume of distilled water.
Acquaintance with the behavioural cage. At the first test day mice were placed into a research chamber and allowed to acclimate for 20-30 min. After that each animal was placed for 10 minutes into an empty, previously treated with alcohol behavioural chamber for acclimation. Then the animal was placed into the cage and taken back to vivarium.
Training. Next day the same mice were placed into a behavioural chamber and allowed to explore for 20-30 min; after acclimation animals were injected intragastrically by the solution of tested compound. […]

Series [2] concerns male mice of C57BL/6 line. Description: Acute toxicity in mice. It counts as in vivo. The following applies: for animals' death: 100 mg/kg. On the procedure:
Research of acute toxicity. Acute toxicity of the proposed compounds was determined in male mice of C57BL/6 line. […] Observation time was 14 days.

[3] abbreviates: dose 1 mg/kg intragastrically one hour before training.
The mark [4] stands for this setting: dose 5 mg/kg intragastrically one hour before training.

Regarding `Cc1ccc2c(c1)[C@@H]1CN(C)CCC[C@H]1N2Cc1ccccn1.Cl.Cl` (relative stereo) [1.2.6(4)HCl, trans-2,9-dimethyl-6-[(pyridin-2-yl)methyl]-1,2,3,4,5,5a,6,10b-octahydroazepino[4,3-b]indole dihydrochloride], in series [1] (setting [3]), the “% of time investigating the object in a novel localization” value stood at 49.11±3.3% and the “% of time investigating the object in familiar localization” value was 41.3±9.7%. In addition, in series [1] (setting [4]), the “% of time investigating the object in a novel localization” value stood at 60.1±9.0% and the “% of time investigating the object in familiar localization” value stood at 39.9±9.0%. In addition, the effect on memory result in series [1] is recorded as “stimulating effect on memory”. For the same compound, in series [2] (doses 100 and 50 mg/kg, mice), the “duration of sedative action” value was over 24 h, the “onset of sedative action after injection” value fell in the range of 5 to 10 min and the sedative action entry is given as “pronounced sedative action”. In addition, the sedative action entry in series [2] (doses of 1 and 5 mg/kg, mice) is “not observed”. The “animals' death” value in series [2] (unitary introduction into stomach, 14 days of watching) is “do not cause animals' death”.

Turning to `Cc1ccc2c(c1)c1c(n2CCc2ccc(C)nc2)CCCN(C)C1.Cl.Cl` [1.1.5(2)HCl, 2,9-dimethyl-6-[2-(6-methylpyridin-3-yl)ethyl]-1,2,3,4,5,6-hexahydroazepino[4,3-b]indole dihydrochloride], the “% of time investigating the object in a novel localization” value in series [1] (setting [3]) is 58.7±9.7%; in series [1] (setting [4]), 58.8±11.1%. Moreover, the “% of time investigating the object in familiar localization” value in series [1] (setting [3]) is listed as 41.3±9.7%; in series [1] (setting [4]), 41.2±11.1%. Moreover, the effect on memory entry in series [1] was “stimulating effect on memory”. Besides, the “animals' death” value in series [2] (mouse, in vivo) is reported as “do not cause animals' death”.

Regarding `Cc1ccc2c(c1)c1c(n2CCc2ccncc2)CCCN(C)C1.Cl.Cl` [1.1.5(3)HCl, 2,9-dimethyl-6-[2-(pyridin-4-yl)ethyl]-1,2,3,4,5,6-hexahydroazepino[4,3-b]indole dihydrochloride], the “% of time investigating the object in a novel localization” value in series [1] (setting [3]) was found to be 55.5±6.2%; in series [1] (setting [4]), 59.9±5.9%. The “% of time investigating the object in familiar localization” value in series [1] (setting [3]) came to 44.5±6.2%; in series [1] (setting [4]), 40.1±5.9%. For the same compound, in series [1], the effect on memory result is given as “stimulating effect on memory”. In series [2] (mouse, in vivo), the “animals' death” value is reported as “do not cause animals' death”.

The values are drawn from patent publication US20120040965A1, “SUBSTITUTED AZEPINO[4,3-B]INDOLES, PHARMACOLOGICAL COMPOSITION AND A METHOD FOR THE PRODUCTION AND USE THEREOF” (priority 2006, published 2012).
